Here are results for one substance from publication PMC12524408 (International Journal of Molecular Sciences, 2025).

The subject of data set [1] is DSS-induced colitis. Nature of the data set: Dose-dependent study of intravenous PEG-AM in DSS-induced colitis (Study No. P170454). The following applies: 1, 5, 25 nmol/kg single i.v. one day before 3% DSS (MW 5000); vs vehicle; n = 10 per group. It counts as in vivo, mouse. As to the method:
We examined the effects of intravenous administration of PEG-AM on DSS-induced colitis, as per the experimental design in Figure 4a. PEG-AM was administered one day before DSS exposure to evaluate its prophylactic effect against colitis onset and progression.  Figure 4 Dose-dependent effects of intravenous PEG-AM administration in DSS-induced colitis (Study No. P170454). (a) Overview of the experimental design. Groups: vehicle (n = 10), PEG-AM 1 nmol/kg (n = 10), 5 nmol/kg (n = 10), 25 nmol/kg (n = 10). (b) Total inflammation scores on day 8. (c) Colon length. (d) Colon weight-to-length ratio. (e) PEG-AM plasma concentrations on day 8. To evaluate the pharmacological effects of PEG-AM, three animal studies were conducted by the LSI Medience Corporation following the Animal Welfare Act and institutional approval. Seven-week-old male C57BL/6J JCL mice (CLEA Japan, Inc., Tokyo, Japan) were used in all studies and were housed under pathogen-free conditions. Colitis was induced with 3% (w/v) DSS (MW 5000) in drinking water for seven days. PEG-AM (1.0, 5.0, and 25 nmol/kg) or saline (control) was administered intravenously one day before DSS treatment. Each group included 10 mice. Stool consistency, bleeding, and body weight were evaluated on days −1, 0, 3, 5, and 7. A total inflammation score was calculated. Mice were anesthetized with 3% isoflurane (Zoetis Japan, Tokyo, Japan), and the colon was excised on day 7.

The nature of data set [2]: PEG-AM plasma concentration, Study No. P170454. Particulars: 1 nmol/kg single i.v.; mouse; fluorescence immunoassay. It counts as in vivo. From the text: Figure 4 Dose-dependent effects of intravenous PEG-AM administration in DSS-induced colitis (Study No. P170454). (a) Overview of the experimental design. Groups: vehicle (n = 10), PEG-AM 1 nmol/kg (n = 10), 5 nmol/kg (n = 10), 25 nmol/kg (n = 10). (b) Total inflammation scores on day 8. (c) Colon length. (d) Colon weight-to-length ratio. (e) PEG-AM plasma concentrations on day 8.
Colitis was induced with 3% (w/v) DSS (MW 5000) in drinking water for seven days. PEG-AM (1.0, 5.0, and 25 nmol/kg) or saline (control) was administered intravenously one day before DSS treatment. Each group included 10 mice. Stool consistency, bleeding, and body weight were evaluated on days −1, 0, 3, 5, and 7. A total inflammation score was calculated. Mice were anesthetized with 3% isoflurane (Zoetis Japan, Tokyo, Japan), and the colon was excised on day 7.

The test system of data set [3] is DSS-induced colitis. Put plainly: Effect of 25 nmol/kg PEG-AM in DSS-induced colitis (Study No. P180567). It counts as in vivo, mouse. The following applies: 25 nmol/kg single i.v. one day before DSS, vs control, n = 20. The source says: The detailed rationale for this choice is provided in the Discussion. Two groups (control and treatment with 25 nmol/kg PEG-AM) were compared, each consisting of 20 animals.  Figure 5 Effect of 25 nmol/kg PEG-AM in DSS-induced colitis (Study No. P180567). (a) Overview of the experimental design. Groups: vehicle (n = 20), PEG-AM 25 nmol/kg (n = 20). (b) Total inflammation scores on day 8. ** p < 0.01, Mann–Whitney U test. (c) Bloody stool scores on day 8, *** p < 0.001, Mann–Whitney U test. (d) Colon length. (e) Colon weight-to-length ratio, ** p < 0.01, unpaired t-test. (f) PEG-AM plasma concentrations on day 8. (g–j) Fold changes in gene expression of RAMP1 (g), RAMP2 (h), RAMP3 (i), and CLR (j). * p < 0.05, unpaired t-test. To evaluate the pharmacological effects of PEG-AM, three animal studies were conducted by the LSI Medience Corporation following the Animal Welfare Act and institutional approval. Seven-week-old male C57BL/6J JCL mice (CLEA Japan, Inc., Tokyo, Japan) were used in all studies and were housed under pathogen-free conditions. Colitis was induced with 3% (w/v) DSS (MW 5000) in drinking water for seven days. PEG-AM (1.0, 5.0, and 25 nmol/kg) or saline (control) was administered intravenously one day before DSS treatment. Each group included 10 mice. Stool consistency, bleeding, and body weight were evaluated on days −1, 0, 3, 5, and 7. A total inflammation score was calculated. Mice were anesthetized with 3% isoflurane (Zoetis Japan, Tokyo, Japan), and the colon was excised on day 7. Following the protocol described in Section 4.6.1, this study was conducted to confirm the efficacy of 25 nmol/kg intravenous PEG-AM. Each treatment group consisted of 20 mice.

For another data set, the system named is RAMP1, RAMP2, RAMP3, CLR. Put plainly: Gene expression of receptor components in distal colon, Study No. P180567. The format is in vivo, mouse. Particulars: 25 nmol/kg i.v., qPCR, 2^-ΔΔCt, GAPDH normalization, vs control. From the text:
Figure 5 Effect of 25 nmol/kg PEG-AM in DSS-induced colitis (Study No. P180567). (a) Overview of the experimental design. Groups: vehicle (n = 20), PEG-AM 25 nmol/kg (n = 20). (b) Total inflammation scores on day 8. ** p < 0.01, Mann–Whitney U test. (c) Bloody stool scores on day 8, *** p < 0.001, Mann–Whitney U test. (d) Colon length. (e) Colon weight-to-length ratio, ** p < 0.01, unpaired t-test. (f) PEG-AM plasma concentrations on day 8. (g–j) Fold changes in gene expression of RAMP1 (g), RAMP2 (h), RAMP3 (i), and CLR (j). * p < 0.05, unpaired t-test.
After measuring colon length and weight, distal colon tissue was collected, immersed in RNAlater (Thermo Fisher Scientific K.K.), and stored at −80 °C until RNA extraction. Total RNA was extracted using the RNeasy Micro Kit (Qiagen, Singapore) and quantified using a DeNovix DS-11 Microvolume Spectrophotometer. cDNA was synthesized from 2 μg of total RNA using a high-capacity cDNA Reverse Transcription Kit (Thermo Fisher Scientific K.K.). Quantitative PCR was performed using the StepOnePlus Real-Time PCR System (Applied Biosystems, Waltham, MA, USA) and TaqMan Gene Expression Assays for mouse RAMP1, RAMP2, RAMP3, CLR (CALCRL), and GAPDH (internal control). […]
All reactions were performed in duplicate. Relative expression levels were calculated using the 2^−ΔΔCt method with GAPDH normalization.
For orientation: In qPCR the cycle at which signal appears reflects the starting amount.

“40 kDa PEGylated adrenomedullin [PEG-AM]”: the Colon length result is “comparable across all groups” with DSS-induced colitis [1] and “not significantly different” in the data set on DSS-induced colitis [3] (p = 0.1429, unpaired t-test). Also, the “Colon weight per unit length” value is recorded as “no significant differences” in the data set with DSS-induced colitis [1] and “significantly lower” in the data set on DSS-induced colitis [3] (p = 0.0024, unpaired t-test). Moreover, the “Total inflammation score on day 8” value in the data set with DSS-induced colitis [1] was “no statistically significant differences”; with DSS-induced colitis [3] (p = 0.0062, Mann-Whitney U test), “significantly lower”. Besides, in data set [2], the “PEG-AM plasma concentration on day 8” value is given as “undetectable”. For the same substance, the “Bloody stool score on day 8” value with DSS-induced colitis [3] (p = 0.0008, Mann-Whitney U test) is on record as “significantly lower”. In addition, in the data set with RAMP1, RAMP2, RAMP3, CLR, the “Gene expression of receptor components (RAMP1, RAMP2, RAMP3, CLR)” value is given as “no downregulation”.
